Data as given in ChEMBL document CHEMBL1150773, “Novel donepezil-based inhibitors of acetyl- and butyrylcholinesterase and acetylcholinesterase-induced beta-amyloid aggregation” (J Med Chem, 2008).

Columns and labels:
[1] = target: Acetylcholinesterase (Homo sapiens, UniProt P22303)
Description: Inhibition of human erythrocyte AChE by Ellman's assay

[2] = target: T1, Acetylcholinesterase (Bos taurus, UniProt P23795)
T1 sequence (P23795 whole entry): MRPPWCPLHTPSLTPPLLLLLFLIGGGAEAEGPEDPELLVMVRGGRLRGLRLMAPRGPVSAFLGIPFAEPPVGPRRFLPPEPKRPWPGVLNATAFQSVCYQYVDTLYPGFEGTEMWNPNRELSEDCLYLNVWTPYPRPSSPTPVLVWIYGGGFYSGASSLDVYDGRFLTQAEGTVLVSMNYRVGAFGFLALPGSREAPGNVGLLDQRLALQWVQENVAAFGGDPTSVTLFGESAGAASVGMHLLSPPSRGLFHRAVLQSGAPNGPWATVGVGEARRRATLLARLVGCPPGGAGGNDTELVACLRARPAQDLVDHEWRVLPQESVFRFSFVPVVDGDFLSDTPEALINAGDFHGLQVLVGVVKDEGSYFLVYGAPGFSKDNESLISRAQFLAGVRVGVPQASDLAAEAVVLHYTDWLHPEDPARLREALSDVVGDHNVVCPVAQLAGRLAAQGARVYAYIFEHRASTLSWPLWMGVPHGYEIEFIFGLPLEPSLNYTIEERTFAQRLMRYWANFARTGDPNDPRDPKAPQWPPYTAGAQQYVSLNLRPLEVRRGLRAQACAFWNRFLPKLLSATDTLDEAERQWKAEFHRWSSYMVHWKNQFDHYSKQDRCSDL
Description: Inhibition of bovine erythrocyte AChE by Ellman's assay

[3] = target: Cholinesterase (Homo sapiens, UniProt P06276)
Cholinesterase, sequence (P06276 whole entry): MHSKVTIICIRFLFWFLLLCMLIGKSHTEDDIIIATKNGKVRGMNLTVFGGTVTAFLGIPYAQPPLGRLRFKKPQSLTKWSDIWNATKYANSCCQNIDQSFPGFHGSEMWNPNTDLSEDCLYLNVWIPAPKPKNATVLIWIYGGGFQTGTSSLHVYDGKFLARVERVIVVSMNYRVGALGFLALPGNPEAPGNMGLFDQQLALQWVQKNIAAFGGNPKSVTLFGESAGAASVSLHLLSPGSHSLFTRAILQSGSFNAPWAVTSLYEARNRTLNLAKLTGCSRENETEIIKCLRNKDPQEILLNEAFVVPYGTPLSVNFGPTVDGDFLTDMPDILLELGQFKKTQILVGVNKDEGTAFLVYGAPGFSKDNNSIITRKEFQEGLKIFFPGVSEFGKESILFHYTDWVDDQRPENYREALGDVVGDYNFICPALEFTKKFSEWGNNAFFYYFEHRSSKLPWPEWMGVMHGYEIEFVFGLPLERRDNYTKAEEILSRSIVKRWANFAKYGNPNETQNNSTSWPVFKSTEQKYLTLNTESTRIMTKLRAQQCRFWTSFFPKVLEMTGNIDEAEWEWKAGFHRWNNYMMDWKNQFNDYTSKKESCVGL
Description: Inhibition of human serum BChE by Ellman's assay

Acetylcholinesterase (Homo sapiens, UniProt P22303), sequence (P22303 whole entry): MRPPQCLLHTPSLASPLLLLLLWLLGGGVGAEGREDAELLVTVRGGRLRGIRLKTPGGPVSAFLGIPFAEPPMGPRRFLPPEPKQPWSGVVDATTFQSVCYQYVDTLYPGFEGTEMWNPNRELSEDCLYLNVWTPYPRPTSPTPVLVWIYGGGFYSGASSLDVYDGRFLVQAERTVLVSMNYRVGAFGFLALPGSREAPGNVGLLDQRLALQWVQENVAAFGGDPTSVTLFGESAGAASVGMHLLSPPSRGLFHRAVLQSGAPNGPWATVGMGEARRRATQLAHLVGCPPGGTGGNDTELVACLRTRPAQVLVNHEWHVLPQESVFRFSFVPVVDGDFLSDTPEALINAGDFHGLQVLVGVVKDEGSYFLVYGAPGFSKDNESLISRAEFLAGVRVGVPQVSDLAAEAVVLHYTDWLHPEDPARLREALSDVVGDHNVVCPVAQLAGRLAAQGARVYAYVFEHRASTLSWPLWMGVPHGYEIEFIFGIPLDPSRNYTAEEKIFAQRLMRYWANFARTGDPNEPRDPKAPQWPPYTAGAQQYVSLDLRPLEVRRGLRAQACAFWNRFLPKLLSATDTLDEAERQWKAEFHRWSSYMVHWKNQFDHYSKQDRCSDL

| Structure (SMILES) | IC50 [1] [nM] | IC50 [2] [nM] | IC50 [3] [nM] |
| --- | --- | --- | --- |
| COc1cc2c(cc1OC)CC(CC1CCN(CCNc3c4c(nc5ccccc35)CCCC4)CC1)C2 | 5.13 | 2.28 | 8.06 |
| COc1cc2c(cc1OC)CC(CC1CCN(CCCNc3c4c(nc5ccccc35)CCCC4)CC1)C2 | 2.16 | 0.82 | 7.25 |
| COc1cc2c(cc1OC)CC(CC1CCN(CCNc3c4c(nc5cc(Cl)ccc35)CCCC4)CC1)C2 | 2.6 | 1.86 | 88.7 |
| COc1cc2c(cc1OC)C(=O)C(CC1CCN(CCNc3c4c(nc5cc(Cl)ccc35)CCCC4)CC1)C2 (configuration not stated) | 0.67 | 0.57 | 136 |
| COc1cc2c(cc1OC)C(=O)C(CC1CCN(CCCNc3c4c(nc5cc(Cl)ccc35)CCCC4)CC1)C2 (configuration not stated) | – | – | 66.3 |
| COc1cc2c(cc1OC)C(=O)C(CC1CCN(CCCNc3c4c(nc5ccccc35)CCCC4)CC1)C2 (configuration not stated) | 0.88 | 0.29 | 12.3 |
| COc1cc2c(cc1OC)CC(CC1CCN(CCCNc3c4c(nc5cc(Cl)ccc35)CCCC4)CC1)C2 | 1.06 | 0.82 | 72.7 |
| Nc1c2c(nc3cc(Cl)ccc13)CCCC2 | – | 5.73 | – |
| COc1cc2c(cc1OC)CC(CC1CCN(Cc3ccccc3)CC1)C2 | – | 1450 | 6400 |
